Experimental data published in article PMC9635468, “Biological evaluation, docking studies, and in silico ADME prediction of some pyrimidine and pyridine derivatives as potential EGFR^WT and EGFR^T790M inhibitors” (Journal of Enzyme Inhibition and Medicinal Chemistry, 2022).
≈ marks a conversion by molar mass, not a printed value.

Tests used:
[1] = tested on: H460; test: Cytotoxicity screening, SRB assay, H460; type: cell-based, human; details: for H460 IC50: 48 h; for IC50: Homo sapiens, NCI-H460, 48 h
Experimental: (§1) In this study, a panel of cell lines was examined for their chemosensitivity. Different concentrations of the synthesised pyridines and pyrimidine derivatives were used in this study (5, 12.5, 25, and 50 µg/mL) for all the examined cell lines. In this study, breast tumour cell line (MCF7), hepatocellular carcinoma cell line (HEPG2), larynx cell line (HEP2), lung cancer cell line (H460), colon cancer cell line (HCT116 and Caco2), hypopharyngeal cell line (FADU), and normal Vero cell line were applied. The full methodology is described in the Supplementary data (SI 1).
(§2) SI 1: Cytotoxicity screening against human cancer cell lines
(§3) In this study, a panel of cell lines was examined for their chemosensitivity. Different concentrations of the synthesized pyridines and pyrimidines derivatives were used in this study (5, 12.5, 25, and 50 µg/ml) for all the examined cell lines. The most sensitive cell line to the treatment regimen was selected and subjected to further investigations to explore the mechanism of this interaction. Human breast tumor cell line (MCF7), human hepatocellular carcinoma cell line (HEPG2), human larynx cell line (HEP2), human lung cancer cell line (H460), human colon cancer cell line (HCT116 and Caco2), human hypopharyngeal cell line (FaDu), and normal cell line Vero were used in this study. It was obtained from the American Type Culture Collection (ATCC, Minnesota, USA). The tumor cell line was maintained at National Cancer Institute (NCI), Cairo, Egypt.
(§4) The antitumor activities of pyridines and pyrimidines derivatives and all tested cell lines were evaluated by sulphorhodamine-B (SRB) assay 1. Briefly, cells were seeded at a density of 3 × 10^3 cells/well in 96-well microtiter plates. They were left to attach for 24 h before incubation with drugs. Next, cells were treated with different concentrations of 5, 12.5, 25, and 50 µg/ml for MCF7, HEPG2, HEP2, HCT116, Caco2, H460, FaDu, and Vero cells. For each concentration, three wells were used and incubation was continued for 48 h. DMSO was used as a control vehicle (1 % v/v). At the end of incubation, cells were fixed with 20 % trichloroacetic acid and stained with 0.4 % SRB dye. The optical density (O.D.) of each well was measured spectrophotometrically at 570 nm using an ELISA microplate reader (TECAN sunrise™, Germany). The mean survival fraction at each drug concentration was calculated as follows: […]
(§5) O.D. of the treated cells/O.D. of the control cells. The IC50 (concentration that produces 50% of cell growth inhibition) value of each drug was calculated using sigmoidal dose-response curve-fitting models (Graph Pad Prizm software, version 5) 1.

[2] = tested on: MCF7; test: Cytotoxicity screening, SRB assay, MCF7; type: cell-based, human; details: for MCF7 IC50: 48 h; for IC50: Homo sapiens, MCF7, 48 h
Experimental: as §1, §2, §3, §4, §5

[3] = biological target: EGFR (T790M) (Homo sapiens, UniProt P00533, T790M); test: EGFR kinase (T790M) inhibition assay, Kinase-Glo MAX
Experimental: The reagent, Kinase-Glo MAX, was used[50], and luminescence was detected by applying the microplate reader.
The assay protocol was carried out by adding 25 μL of the master mixture: (6 μL Kinase assay buffer + 1 μL ATP (500 μM) + 1 μL PTK substrate + 17 μL water) to each well. Thereafter, 5 μL of the inhibitor solution was added to each well labeled as “test inhibitor”. Meanwhile, for the “positive control" and “blank”, 5 μL of the same solution without inhibitor (inhibitor buffer) was added. To the wells designated as "blank", add 20 μL of Kinase assay buffer. The amount of EGFR required for the assay was calculated and the enzyme was diluted to 1 ng/μL with Kinase assay buffer. The reaction was initiated by adding 20 μL of diluted EGFR enzyme to the wells designated as “positive control” and "test inhibitor control". The wells were incubated at 30°C for 40 minutes, then 50 μL of Kinase-Glo Max reagent was added to each well. The plate was incubated at room temperature for 15 minutes and luminescence was measured using the microplate reader.

[4] = tested on: MCF7, H460, FADU, HEP2, HEPG2, HCT 116, Caco2, and Vero cells; test: Oxidative stress assessment (MDA, NO, SOD, GSH); type: cell-based; details: dose IC50, 48 h
Experimental: Consequently, both compounds 8 and 14 were tested for their antioxidant activity in MCF7, H460, FADU, HEP2, HEPG2, HCT 116, Caco2, and Vero cells, and the dose used was the IC50 in all cell lines.
SI 2: Oxidative stress assessment
SI 2A: Determination of malondialdehyde content (MDA)
Lipid peroxidation products were quantified by measuring MDA level in cell culture lysate of control and treated cells using Lipid Peroxidation (MDA) Assay Kit (Sigma Aldrich Chemical Co., St.
Louis, USA) following the manufacturer’s instructions. The MDA level was calculated relative to the corresponding protein content. The absorbance was determined at 532 nm using a spectrophotometer (Spectronic, Milton Roy Co., USA).
SI 2B: Determination of superoxide dismutase (SOD)
[…] in cell culture lysate of control and treated cells by SOD determination kit (Sigma Aldrich Chemical Co., St. Louis, USA) following the manufacturer’s instructions. SOD level was calculated relative to the corresponding protein content. The absorbance of the supernatant was determined at 450 nm using a spectrophotometer (Spectronic, Milton Roy Co., USA) 2. The experiment was carried out three independent times.
SI 2C: Determination of reduced glutathione (GSH) content
Reduced glutathione was determined by adopting Ellman’s method. MCF7 and LCC2 cells were harvested, the protein was precipitated with trichloroacetic acid, and Ellman’s reagent [5,5-dithiobis-(2-nitrobenzoic acid)] (Sigma Aldrich Chemical Co, St. Louis, USA) was added to the supernatant. The absorbance was read at 405 nm and total SH was calculated as µM of GSH/mg protein 3.
SI 2D: Determination of nitric oxide (NO) content
Nitric oxide was determined in the culture media of the control and treated cells a s described before
4. Briefly, 0.5 ml cold absolute ethanol was added to 250µl culture media then left for 48 h at 4 °C to attain complete protein precipitation followed by centrifugation at 13,000 rpm for 1 h using a cooling centrifuge.
100 μl of nitrate standard solution were serially diluted in duplicate in a 96 -well microplate. Then, 100 μl of vanadium chloride were added to each well rapidly followed by 50 μl sulfanilamide and 50µl n -(1-naphthyl) ethylenediamine in 2 N hydrochloric acid. The absorbance at 540 nm was measured spectrophotometrically using an ELISA microplate reader (TECAN SunriseTM, Germany) following an incubation period of 30 min. The level of total nitrite/nitrate was expressed as µM and determined using […]

[5] = tested on: HEPG2; test: Cytotoxicity screening, SRB assay, HEPG2; type: cell-based, human; details: for HEPG2 IC50: 48 h; for IC50: Homo sapiens, HepG2, 48 h
Experimental: as §1, §2, §3, §4, §5

Sequence of EGFR (T790M) (P00533 25-1210 T790M): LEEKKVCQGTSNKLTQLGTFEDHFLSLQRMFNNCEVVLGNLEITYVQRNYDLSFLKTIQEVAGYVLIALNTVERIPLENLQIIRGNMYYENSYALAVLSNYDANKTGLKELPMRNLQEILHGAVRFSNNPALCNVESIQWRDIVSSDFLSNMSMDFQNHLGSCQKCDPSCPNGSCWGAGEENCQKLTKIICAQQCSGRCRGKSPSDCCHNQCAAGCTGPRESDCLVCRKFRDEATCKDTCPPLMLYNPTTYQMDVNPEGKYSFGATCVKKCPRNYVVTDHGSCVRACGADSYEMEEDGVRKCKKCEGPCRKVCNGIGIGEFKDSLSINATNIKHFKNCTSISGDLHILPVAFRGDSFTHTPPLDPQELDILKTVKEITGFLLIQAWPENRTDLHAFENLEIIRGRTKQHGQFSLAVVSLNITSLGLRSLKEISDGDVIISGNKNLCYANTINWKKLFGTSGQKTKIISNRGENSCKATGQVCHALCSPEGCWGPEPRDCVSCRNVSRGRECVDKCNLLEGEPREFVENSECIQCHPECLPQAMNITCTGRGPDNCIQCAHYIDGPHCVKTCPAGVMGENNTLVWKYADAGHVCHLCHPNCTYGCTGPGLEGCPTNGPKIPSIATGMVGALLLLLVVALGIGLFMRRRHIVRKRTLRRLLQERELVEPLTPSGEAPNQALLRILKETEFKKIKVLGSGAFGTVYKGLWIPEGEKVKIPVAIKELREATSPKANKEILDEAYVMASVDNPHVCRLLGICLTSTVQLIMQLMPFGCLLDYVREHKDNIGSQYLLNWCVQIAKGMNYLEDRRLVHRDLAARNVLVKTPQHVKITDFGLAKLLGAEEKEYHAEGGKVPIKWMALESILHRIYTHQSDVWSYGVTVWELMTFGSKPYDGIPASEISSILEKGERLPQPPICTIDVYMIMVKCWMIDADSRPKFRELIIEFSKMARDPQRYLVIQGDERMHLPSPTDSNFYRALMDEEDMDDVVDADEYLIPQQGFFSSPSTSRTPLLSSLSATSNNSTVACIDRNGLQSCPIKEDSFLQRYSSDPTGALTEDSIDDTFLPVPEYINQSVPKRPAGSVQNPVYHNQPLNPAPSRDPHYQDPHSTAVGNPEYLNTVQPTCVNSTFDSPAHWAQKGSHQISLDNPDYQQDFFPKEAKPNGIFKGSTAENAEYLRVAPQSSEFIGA

Structure (SMILES)	H460 IC50 [1] [mg/L]	IC50 [1] [mg/L]	MCF7 IC50 [2] [mg/L]	IC50 [2] [mg/L]	IC50 [3] [µM]	effect on oxidative state (MDA, NO, SOD, GSH) ([4]; Caco2)	effect on oxidative state (MDA, NO, SOD, GSH) ([4]; all tested cell lines except Caco2)	HEPG2 IC50 [5] [mg/L]	IC50 [5] [mg/L]	effect on oxidative state (MDA, NO, SOD, GSH) ([4]; FADU and Caco2)	effect on oxidative state (MDA, NO, SOD, GSH) ([4]; MCF7, H460, HEP2, HEPG2, HCT, and Vero cells)
Oc1n[nH]c2nc(-c3ccco3)cc(-c3cccs3)c12 [Compound 8]	11.70	8.5 (≈ 30 µM)	4.10	3.8 (≈ 13.4 µM)	0.027 ± 0.002	antioxidant effect	pro-oxidant effect	3.80	4 (≈ 14.1 µM)	–	–
N#Cc1c(-c2cccs2)cc(-c2ccco2)[nH]c1=O [Compound 14]	8.00	12.5 (≈ 46.6 µM)	3.70	7 (≈ 26.1 µM)	0.156 ± 0.009	–	–	3.80	3.6 (≈ 13.4 µM)	anti-oxidant effect	pro-oxidant effect
